Measurements as given in patent publication US11207320B2, “Compositions and methods for cancer expressing PDE3A or SLFN12” (The Broad Institute, Inc., priority 2015, dated 2021).
Read-outs that look alike come from different tables or passages of the source.

Tests used:
PDE5A1 = target: T1, PDE5A1 (Homo sapiens, UniProt O76074); assay: Phosphodiesterase inhibition reactions (Caliper panel); type: biochemical; conditions: PDE5A1, 100 nM
T1 construct: Caliper
Method: (§1) DNMDP concentration was 100 nM.

PDE8A1 = target: T2, PDE8A1 (Homo sapiens, UniProt O60658); assay: as above; type: biochemical; conditions: PDE8A1, 100 nM
T2 construct: Caliper
Method: as §1

HeLa cells = assay: Knockdown of SLFN12 expression using shRNA and testing for drug sensitivity; type: cell-based; conditions: 72 hours
Description: FIG. 15A is a scatterplot showing mRNA robust multichip average (RMA) expression values for PDE3A and SLFN12 from the Cancer Cell Line Encyclopedia (CCLE) database (a detailed genetic characterization of a large panel of human cancer cell lines) with sensitive cell lines indicated (Barretina et al., Nature 483, 603-607, 2012). 21 sensitive cell lines were binned in three groups of 7 based on area under the curve (AUC) rank. FIG. 15B is a bar graph showing results of a Fisher's exact test on DNMDP sensitivity of cell lines with high expression of both SLFN12 and PDE3A (RMA Log 2>5) compared to other cell lines. The top half of the bar on the right indicates melanoma cell lines. FIG. 15C is a scatterplot showing mRNA RPKM+1 expression values for PDE3A and SLFN12 from RNA sequencing data. FIG. 15D is a bar graph showing qPCR expression changes of SLFN12 in HeLa cells transduced with shSLFN12 normalized to GAPDH. FIG. 15E is a plot showing viability of HeLa cells transduced with indicated shRNA reagents and treated with indicated concentrations of DNMDP for 72 hours.
Constructs expressing shRNAs targeting SLFN12, or the control vector, were packaged into lentiviruses and delivered into HeLa cells by viral transduction. […] SLFN12-targeting shRNAs were used, all of which were obtained from the TRC (CloneIDs: TRCN0000152141 and TRCN0000153520). […]

PDE3A = PDE3A (Homo sapiens, UniProt Q14432); assay: Immunoprecipitation of PDE3A in HeLa cells with iTRAQ/MS proteomics; set-up: Immunoprecipitation of endogenous PDE3A in HeLa cells; endogenous in cells; host or cells: HeLa; conditions: 10 μM, four hours
Description: The dependence of 6-(4-(diethylamino)-3-nitrophenyl)-5-methyl-4,5-dihydropyridazin-3(2H)-one (DNMDP) cytotoxicity on phosphodiesterase 3A (PDE3A) protein abundance indicated a possible mechanism similar to that recently observed for lenalidomide, which acts by a neomorphic or hypermorphic mechanism by stabilizing an interaction between cereblon and IKAROS Family Zinc Finger 1 (IKZF1) and IKZF3 (Krönke et al., Science 343, 301-305, 2014; Lu et al., Science 343, 305-309, 2014). […] The protein complexes in which PDE3A resides were characterized under normal conditions, and it was examined how these complexes change when PDE3A is bound to DNMDP or the non-cytotoxic PDE3 inhibitor trequinsin. PDE3A and interacting proteins from Hela cells were immunoprecipitated in the presence of DNMDP and trequinsin followed by labeling with isobaric stable isotope tags for relative abundance and quantitation by mass spectrometry (iTRAQ/MS, FIG. 13A). […]
Desalted peptides were labeled with isobaric tags for relative and absolute quantification (iTRAQ)-reagents according to the manufacturer's instructions (AB Sciex, Foster City, Calif.). […]
Reconstituted peptides were separated on an online nanoflow EASY-NLC™ 1000 UHPLC system (Thermo Fisher Scientific) and analyzed on a benchtop Orbitrap Q EXACTIVE™ mass spectrometer (Thermo Fisher Scientific). […]

[1] = replicate #1, read-out: % inh. #1
[2] = replicate #2, read-out: % inh. #2

T2 sequence (O60658 whole entry, species assumed): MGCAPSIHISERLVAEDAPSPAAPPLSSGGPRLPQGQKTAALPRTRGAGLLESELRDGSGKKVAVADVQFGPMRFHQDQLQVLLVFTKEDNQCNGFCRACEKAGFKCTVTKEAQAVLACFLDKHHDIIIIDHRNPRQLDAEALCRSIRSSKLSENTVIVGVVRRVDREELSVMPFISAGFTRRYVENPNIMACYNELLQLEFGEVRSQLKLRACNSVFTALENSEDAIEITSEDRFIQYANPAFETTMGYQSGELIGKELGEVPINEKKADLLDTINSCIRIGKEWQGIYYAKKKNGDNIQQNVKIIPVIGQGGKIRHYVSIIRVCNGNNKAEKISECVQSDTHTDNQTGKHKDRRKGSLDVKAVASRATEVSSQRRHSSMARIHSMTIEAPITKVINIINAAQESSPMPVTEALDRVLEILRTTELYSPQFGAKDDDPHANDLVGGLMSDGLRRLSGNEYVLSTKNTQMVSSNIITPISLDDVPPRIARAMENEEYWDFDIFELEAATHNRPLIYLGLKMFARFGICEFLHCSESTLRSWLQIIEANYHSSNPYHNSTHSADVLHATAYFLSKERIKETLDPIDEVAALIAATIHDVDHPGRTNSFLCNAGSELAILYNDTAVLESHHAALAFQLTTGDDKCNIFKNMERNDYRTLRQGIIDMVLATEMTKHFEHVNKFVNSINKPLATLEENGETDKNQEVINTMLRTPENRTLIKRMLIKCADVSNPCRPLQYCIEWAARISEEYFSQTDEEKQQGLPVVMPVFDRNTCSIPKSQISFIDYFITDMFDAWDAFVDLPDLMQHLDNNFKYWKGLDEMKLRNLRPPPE
PDE3A, sequence (Q14432 whole entry): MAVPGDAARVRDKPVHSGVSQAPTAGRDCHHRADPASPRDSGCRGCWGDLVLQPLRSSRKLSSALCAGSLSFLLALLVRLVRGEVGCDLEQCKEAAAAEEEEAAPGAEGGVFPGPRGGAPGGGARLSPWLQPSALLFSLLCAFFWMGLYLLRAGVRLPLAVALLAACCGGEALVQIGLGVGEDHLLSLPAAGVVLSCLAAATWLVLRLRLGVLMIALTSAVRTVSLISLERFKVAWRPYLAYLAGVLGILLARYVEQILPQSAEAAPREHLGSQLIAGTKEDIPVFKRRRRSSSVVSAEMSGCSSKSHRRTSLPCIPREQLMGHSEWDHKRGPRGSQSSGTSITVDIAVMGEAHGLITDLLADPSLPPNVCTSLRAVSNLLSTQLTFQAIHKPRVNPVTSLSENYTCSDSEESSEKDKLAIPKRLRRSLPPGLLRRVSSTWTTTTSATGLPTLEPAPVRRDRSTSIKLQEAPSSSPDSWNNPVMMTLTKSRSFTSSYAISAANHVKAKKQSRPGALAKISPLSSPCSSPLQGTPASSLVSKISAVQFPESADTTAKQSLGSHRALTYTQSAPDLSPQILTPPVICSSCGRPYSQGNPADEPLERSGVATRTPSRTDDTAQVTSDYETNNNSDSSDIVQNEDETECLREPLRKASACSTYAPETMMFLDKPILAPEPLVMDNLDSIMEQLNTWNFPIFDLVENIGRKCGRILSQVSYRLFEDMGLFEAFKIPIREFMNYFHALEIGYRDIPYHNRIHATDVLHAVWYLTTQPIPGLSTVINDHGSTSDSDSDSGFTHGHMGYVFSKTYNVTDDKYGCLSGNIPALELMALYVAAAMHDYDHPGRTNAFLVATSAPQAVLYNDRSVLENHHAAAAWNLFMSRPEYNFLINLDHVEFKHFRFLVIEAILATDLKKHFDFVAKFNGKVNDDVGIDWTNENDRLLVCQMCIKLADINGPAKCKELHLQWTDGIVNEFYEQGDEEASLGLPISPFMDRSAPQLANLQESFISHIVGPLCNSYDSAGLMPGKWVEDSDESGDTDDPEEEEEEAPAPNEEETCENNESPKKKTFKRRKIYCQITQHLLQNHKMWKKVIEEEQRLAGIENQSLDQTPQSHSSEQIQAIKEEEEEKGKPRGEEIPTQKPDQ

| SMILES | inhibition at 0.1 µM (PDE5A1; [1]) [%] | inhibition at 0.1 µM (PDE5A1; [2]) [%] | inhibition at 0.1 µM (PDE5A1; read-out: % inhibition) [%] | inhibition at 0.1 µM (PDE8A1; [1]) [%] | inhibition at 0.1 µM (PDE8A1; [2]) [%] | inhibition at 0.1 µM (PDE8A1; read-out: % inhibition) [%] | sensitivity after reduction of SLFN12 expression (shRNA) (HeLa cells) | enrichment of SIRT7 and SLFN12 in PDE3A immunoprecipitates (PDE3A) |
| --- | --- | --- | --- | --- | --- | --- | --- | --- |
| CCN(CC)c1ccc(C2=NNC(=O)CC2C)cc1[N+](=O)[O-] (stereo not drawn) [DNMDP, 6-(4-(diethylamino)-3-nitrophenyl)-5-methyl-4,5-dihydropyridazin-3(2H)-one] | 16 | 16 | 16 | 10 | 12 | 11 | decreased sensitivity | specifically enriched |
| COc1cc2c(cc1OC)-c1c/c(=N\c3c(C)cc(C)cc3C)n(C)c(=O)n1CC2 [trequinsin, 9,10-dimethoxy-3-methyl-2-(2,4,6-trimethylphenyl)imino-6,7-dihydropyrimido[6,1-a]isoquinolin-4-one] | – | – | – | – | – | – | – | not observed |
